Experimental data from patent publication US20240315985A1 (Dermavant Sciences GmbH, priority 2021, published 2024).

Legend:
[1] = tested on: plaque psoriasis in adults; assay: Safety: adverse events (AEs, TEAEs, AESIs, SAEs), extension study; assay type: in vivo, human
Text: Endpoints: Incidence, frequency, and nature of AEs, adverse events of special interest (AESIs), and serious adverse events (SAEs), Change over time in clinical laboratory tests and frequency of clinically significant abnormal test results, Change over time in vital signs and frequency of clinically significant abnormal results, Local Tolerability Scale (LTS) scores by severity summarized by visit.
Safety assessments included AEs, AESIs, SAEs, local (application site) tolerability, clinical laboratory tests, vital signs, physical examinations, and Investigator assessed LTS. Efficacy assessments included a 5 point static PGA (0 [clear], 1 [almost clear], 2 [mild], 3 [moderate], 4 [severe]), % BSA affected, the PASI, and subject reported DLQI.

psoriasis = assay: 12-week phase 2b trial in psoriasis, maintenance after treatment cessation; assay type: in vivo, human
Text: As mentioned, tapinarof is a novel therapeutic aryl hydrocarbon receptor modulating agent (TAMA) in clinical development for the topical treatment of psoriasis and atopic dermatitis. […] AhR modulates T cell responses both through intrinsic control of T cell subset differentiation and via controlling the function of antigen presenting cells. In addition, AhR signaling promotes the conversion of Th17 cells to type 1 regulatory T cells. Aberrant immune responses underpin the pathogenesis of both PsO and AD, and the wide expression of AhR in immune cells makes it an attractive target given the essential role of AhR in regulating inflammatory responses and skin homeostasis. […] These clinical data support the role of AhR in skin immune homeostasis. Given the multitude of AhR-dependent immunoregulatory mechanisms, AhR is an attractive target for novel immunotherapies with the potential to extend therapeutic efficacy following treatment discontinuation; this may provide a unique clinical benefit to patients.

[2] = Preclinical repeat dosing study, systemic exposure; assay type: in vivo; details: CYP1A1/2 induced in skin or liver
Text: The reason for the decrease in plasma concentrations over time is unknown. Without wishing to be bound by theory, as the skin heals, there may be less penetration of the drug through the stratum corneum and into the systemic circulation since the barrier is restored.

[3] = Plasma concentrations, maximal use study with serial PK sampling; assay type: in vivo, human; details: between Days 1 and 29
Text: This unique PK profile is characterized by the highest plasma concentrations being observed on the first day or week of the treatment period followed by a subsequent decline to undetectable or near undetectable levels in the plasma after multiple weeks of dosing.
(FIG. 2). This decline is further supported by serial PK data collected from previous clinical studies over 28 days of dosing and over 21 days of dosing.

[4] = tested on: plaque psoriasis in adults; assay: Physician Global Assessment (PGA), long-term open-label extension study (PSOARING 3) of tapinarof cream, 1%; assay type: in vivo, human
Text: This extension study consisted of up to 40 weeks of treatment and a 4 week, safety follow up period.
The PGA was used to assess the primary efficacy endpoint in this study. The PGA is a clinical tool for assessing the current state/severity of a subject's psoriasis at a given time point. It is a static, 5 point, morphological assessment of overall disease severity, as determined by the Investigator, using the clinical characteristics of erythema, scaling, and plaque thickness/elevation as guidelines; higher PGA scores represent more severe disease (0=clear, 1=almost clear, 2=mild, 3=moderate, and 4=severe). The BSA affected was not considered in scoring of the PGA. Variations of the PGA are frequently used in clinical studies because it is a simple assessment, similar to those used in clinical practice. The PGA was performed first, prior to the % BSA, PASI, and LTS assessments.
Time to event parameters, such as the time from treatment success to subsequent worsening (PGA≥2) or duration of treatment episode, were summarized by the Kaplan Meier product limit method using OC.

CC(C)c1c(O)cc(/C=C/c2ccccc2)cc1O [tapinarof, 3,5-Dihydroxy-4-isopropyl-trans-stilbene]
Study discontinuation due to AESI: Dermatitis contact, Patients, % ([1]; Overall (n = 763)): (1.4) %
Study discontinuation due to AESI: Folliculitis, Patients, % ([1]; Overall (n = 763)): (1.2) %
Study discontinuation due to TEAEs, Patients, % ([1]; Overall (n = 763)): (5.4) %
Treatment-emergent AESI: Dermatitis contact, Patients, % ([1]; Overall (n = 763)): (5.9) %
Treatment-emergent AESI: Folliculitis, Patients, % ([1]; Overall (n = 763)): (24.0) %
Treatment-emergent AESI: Headache, Patients, % ([1]; Overall (n = 763)): (2.0) %
Study discontinuation due to AESI: Dermatitis contact, Patients, % ([1]; Tapinarof→Tapinarof (n = 508)): (1.4) %
Study discontinuation due to AESI: Folliculitis, Patients, % ([1]; Tapinarof→Tapinarof (n = 508)): (1.2) %
Study discontinuation due to TEAEs, Patients, % ([1]; Tapinarof→Tapinarof (n = 508)): (5.1) %
Treatment-emergent AESI: Dermatitis contact, Patients, % ([1]; Tapinarof→Tapinarof (n = 508)): (4.7) %
Treatment-emergent AESI: Folliculitis, Patients, % ([1]; Tapinarof→Tapinarof (n = 508)): (24.4) %
Treatment-emergent AESI: Headache, Patients, % ([1]; Tapinarof→Tapinarof (n = 508)): (2.0) %
Study discontinuation due to AESI: Dermatitis contact, Patients, % ([1]; Vehicle→Tapinarof (n = 255)): (1.6) %
Study discontinuation due to AESI: Folliculitis, Patients, % ([1]; Vehicle→Tapinarof (n = 255)): (1.2) %
Study discontinuation due to TEAEs, Patients, % ([1]; Vehicle→Tapinarof (n = 255)): (5.9) %
Treatment-emergent AESI: Dermatitis contact, Patients, % ([1]; Vehicle→Tapinarof (n = 255)): (8.2) %
Treatment-emergent AESI: Folliculitis, Patients, % ([1]; Vehicle→Tapinarof (n = 255)): (23.1) %
Treatment-emergent AESI: Headache, Patients, % ([1]; Vehicle→Tapinarof (n = 255)): (2.0) %
Time efficacy was maintained after treatment cessation (psoriasis): four
Change in systemic exposures with repeat dosing compared to single doses ([2]; minipigs): no changes in systemic exposures
Change in systemic exposures with repeat dosing compared to single doses ([2]; rats): no changes in systemic exposures
Decline in plasma concentrations of tapinarof [3]: 10 fold
Durability of Response, No. of Subjects ([4]; Vehicle→Tapinarof, Wk. 0): 22
Remittive effect off therapy ([4]; patients with complete disease clearance (PGA=0)): approximately 4 months
